{"source": "patent US6726936B1", "about": "“Antimicrobial agents” (Sumitomo Metal Mining Co., Ltd., priority 1998, dated 2004)", "key": {"[1]": {"experiment": "NaCl concentration required to stabilize silver-chloro complex salts", "format": "physicochemical", "conditions": "for NaCl CONCENTRATION REQUIRED TO STABILIZE SILVER-CHLORO COMPLEX SALTS IN AQUEOUS SOLUTION OF 70% (w/v) ETHANOL (b) / NaCl CONCENTRATION REQUIRED TO STABILIZE SILVER-CHLORO COMPLEX SALTS IN WATER (AQUEOUS SOLUTION) (a): 25° C.", "experimental": "The concentration of the chloride in the second antimicrobial agent in accordance with the present invention is not particularly limited, but it is preferable that the chloride be added in a predetermined concentration in accordance with the concentration of the silver-chloro complex salts contained in the antimicrobial agent. […] Specifically, the required concentration of the chloride to stabilize the silver-chloro complex salts (at 25° C.) has the following correlation in water or in a 70%(w/v) ethanol aqueous solution."}, "[2]": {"experiment": "upper limit value of the silver-chloro complex salts in sodium chloride-water-ethanol", "format": "physicochemical", "conditions": "water and ethanol mixed in the volume ratio of 32:68, 3%(w/v) of sodium chloride", "excerpt": "For example, in the system of silver-chloro complex salts (sodium tetrachloroargentate (I))-sodium chloride-water-ethanol, the upper limit value of the silver-chloro complex salts is 46 ppm when water and ethanol was mixed in the volume ratio of 32:68 and 3%(w/v) of sodium chloride was contained therein."}, "[3]": {"conditions": "silver ion concentration 0.183 ppm"}, "[4]": {"conditions": "silver ion concentration 0.410 ppm"}, "[5]": {"conditions": "silver ion concentration 2.600 ppm"}, "[6]": {"conditions": "silver ion concentration 8.697 ppm"}, "[7]": {"conditions": "silver ion concentration 42.189 ppm"}}}
{"smiles": "[Cl][Ag-3]([Cl])([Cl])[Cl].[Na+].[Na+].[Na+]", "note": "[SILVER-CHLORO COMPLEX SALTS, sodium tetrachloroargentate (I)]", "values": [{"measurement": "ratio of NaCl concentration required in 70% ethanol to that required in water", "setting": "[1]; [3]", "value": 0.044}, {"measurement": "NaCl CONCENTRATION REQUIRED TO STABILIZE SILVER-CHLORO COMPLEX SALTS IN AQUEOUS SOLUTION OF 70% (w/v) ETHANOL (b)", "setting": "[1]; [3]", "value": 0.128, "unit": "g/L"}, {"measurement": "NaCl CONCENTRATION REQUIRED TO STABILIZE SILVER-CHLORO COMPLEX SALTS IN WATER (AQUEOUS SOLUTION) (a)", "setting": "[1]; [3]", "value": 2.925, "unit": "g/L"}, {"measurement": "ratio of NaCl concentration required in 70% ethanol to that required in water", "setting": "[1]; [4]", "value": 0.049}, {"measurement": "NaCl CONCENTRATION REQUIRED TO STABILIZE SILVER-CHLORO COMPLEX SALTS IN AQUEOUS SOLUTION OF 70% (w/v) ETHANOL (b)", "setting": "[1]; [4]", "value": 0.287, "unit": "g/L"}, {"measurement": "NaCl CONCENTRATION REQUIRED TO STABILIZE SILVER-CHLORO COMPLEX SALTS IN WATER (AQUEOUS SOLUTION) (a)", "setting": "[1]; [4]", "value": 5.850, "unit": "g/L"}, {"measurement": "ratio of NaCl concentration required in 70% ethanol to that required in water", "setting": "[1]; [5]", "value": 0.062}, {"measurement": "NaCl CONCENTRATION REQUIRED TO STABILIZE SILVER-CHLORO COMPLEX SALTS IN AQUEOUS SOLUTION OF 70% (w/v) ETHANOL (b)", "setting": "[1]; [5]", "value": 1.820, "unit": "g/L"}, {"measurement": "NaCl CONCENTRATION REQUIRED TO STABILIZE SILVER-CHLORO COMPLEX SALTS IN WATER (AQUEOUS SOLUTION) (a)", "setting": "[1]; [5]", "value": 29.250, "unit": "g/L"}, {"measurement": "ratio of NaCl concentration required in 70% ethanol to that required in water", "setting": "[1]; [6]", "value": 0.107}, {"measurement": "NaCl CONCENTRATION REQUIRED TO STABILIZE SILVER-CHLORO COMPLEX SALTS IN AQUEOUS SOLUTION OF 70% (w/v) ETHANOL (b)", "setting": "[1]; [6]", "value": 6.088, "unit": "g/L"}, {"measurement": "NaCl CONCENTRATION REQUIRED TO STABILIZE SILVER-CHLORO COMPLEX SALTS IN WATER (AQUEOUS SOLUTION) (a)", "setting": "[1]; [6]", "value": 57.038, "unit": "g/L"}, {"measurement": "ratio of NaCl concentration required in 70% ethanol to that required in water", "setting": "[1]; [7]", "value": 0.262}, {"measurement": "NaCl CONCENTRATION REQUIRED TO STABILIZE SILVER-CHLORO COMPLEX SALTS IN AQUEOUS SOLUTION OF 70% (w/v) ETHANOL (b)", "setting": "[1]; [7]", "value": 29.532, "unit": "g/L"}, {"measurement": "NaCl CONCENTRATION REQUIRED TO STABILIZE SILVER-CHLORO COMPLEX SALTS IN WATER (AQUEOUS SOLUTION) (a)", "setting": "[1]; [7]", "value": 112.905, "unit": "g/L"}, {"measurement": "upper limit value of the silver-chloro complex salts", "setting": "[2]", "value": 46, "unit": "ppm"}]}
